Source: PubChem BioAssay (NCI)
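Each compound was tested at five concentrations against cells in 96-well plates for 48 hours. At the GI50, growth is halved. The concentration for full growth arrest is given as TGI.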

Assays:
Experiment in all cases: NCI tumour cell line growth inhibition, 48 h
A498 renal = tested on: A498 renal
HS 578T breast = tested on: HS 578T breast
NCI/ADR-RES ovarian = tested on: NCI/ADR-RES ovarian
T-47D breast = tested on: T-47D breast
TK-10 renal = tested on: TK-10 renal
786-0 renal = tested on: 786-0 renal
A549 NSCLC = tested on: A549 NSCLC
ACHN renal = tested on: ACHN renal
BT-549 breast = tested on: BT-549 breast
CAKI-1 renal = tested on: CAKI-1 renal
COLO 205 colon = tested on: COLO 205 colon
DU-145 prostate = tested on: DU-145 prostate
HCC-2998 colon = tested on: HCC-2998 colon
HCT-15 colon = tested on: HCT-15 colon
HOP-62 NSCLC = tested on: HOP-62 NSCLC
HOP-92 NSCLC = tested on: HOP-92 NSCLC
HT29 colon = tested on: HT29 colon
IGROV1 ovarian = tested on: IGROV1 ovarian
KM12 colon = tested on: KM12 colon
MALME-3M melanoma = tested on: MALME-3M melanoma
MDA-MB-231 breast = tested on: MDA-MB-231 breast
MDA-MB-435 = tested on: MDA-MB-435
NCI-H226 lung = tested on: NCI-H226 lung
NCI-H23 lung = tested on: NCI-H23 lung
NCI-H460 lung = tested on: NCI-H460 lung
OVCAR-3 ovarian = tested on: OVCAR-3 ovarian
OVCAR-5 ovarian = tested on: OVCAR-5 ovarian
PC-3 prostate = tested on: PC-3 prostate
SF-268 CNS = tested on: SF-268 CNS
SF-295 CNS = tested on: SF-295 CNS
SF-539 CNS = tested on: SF-539 CNS
SK-MEL-2 melanoma = tested on: SK-MEL-2 melanoma
SK-MEL-28 melanoma = tested on: SK-MEL-28 melanoma
SK-MEL-5 melanoma = tested on: SK-MEL-5 melanoma
SK-OV-3 ovarian = tested on: SK-OV-3 ovarian
SN12C renal = tested on: SN12C renal
SNB-75 CNS = tested on: SNB-75 CNS
SW-620 colon = tested on: SW-620 colon
UACC-257 melanoma = tested on: UACC-257 melanoma
UACC-62 melanoma = tested on: UACC-62 melanoma
UO-31 renal = tested on: UO-31 renal
CCRF-CEM leukemia = tested on: CCRF-CEM leukemia
EKVX NSCLC = tested on: EKVX NSCLC
HCT-116 colon = tested on: HCT-116 colon
HL-60(TB) leukemia = tested on: HL-60(TB) leukemia
K-562 leukemia = tested on: K-562 leukemia
LOX IMVI melanoma = tested on: LOX IMVI melanoma
M14 melanoma = tested on: M14 melanoma
MOLT-4 leukemia = tested on: MOLT-4 leukemia
NCI-H522 lung = tested on: NCI-H522 lung
OVCAR-4 ovarian = tested on: OVCAR-4 ovarian
OVCAR-8 ovarian = tested on: OVCAR-8 ovarian
RPMI-8226 leukemia = tested on: RPMI-8226 leukemia
RXF 393 renal = tested on: RXF 393 renal
SNB-19 CNS = tested on: SNB-19 CNS
SR leukemia = tested on: SR leukemia
U251 CNS = tested on: U251 CNS

## c1ccc(Cn2c(-c3ccc(OC[C@H](C4CCNCC4)n4c(-c5ccccc5)nc5ccccc54)cc3)nc3ccccc32)cc1
A498 renal
  GI50: 1.48 µM
  TGI: 2.83 µM
HS 578T breast
  GI50: 2 µM
  TGI: 4.79 µM
NCI/ADR-RES ovarian
  GI50: 7.74 µM
  TGI: > 80.7 µM
T-47D breast
  GI50: 2.19 µM
  TGI: 4.72 µM
TK-10 renal
  GI50: 1.63 µM
  TGI: 3.08 µM

## CNCCCNc1nc2ccccc2c2c(=O)c3cc(Cl)ccc3sc12
786-0 renal
  GI50: 1.71 µM
  TGI: 3.2 µM
A498 renal
  GI50: 2.55 µM
  TGI: 7.41 µM
A549 NSCLC
  GI50: 1.55 µM
  TGI: 3.04 µM
ACHN renal
  GI50: 1.51 µM
  TGI: 2.89 µM
BT-549 breast
  GI50: 13.3 µM
  TGI: 40.5 µM
CAKI-1 renal
  GI50: 1.4 µM
  TGI: 2.7 µM
COLO 205 colon
  GI50: 1.88 µM
  TGI: 3.54 µM
DU-145 prostate
  GI50: 1.74 µM
  TGI: 3.14 µM
HCC-2998 colon
  GI50: 1.69 µM
  TGI: 3.34 µM
HCT-15 colon
  GI50: 1.5 µM
  TGI: 2.92 µM
HOP-62 NSCLC
  GI50: 1.13 µM
  TGI: 2.44 µM
HOP-92 NSCLC
  GI50: 0.935 µM
  TGI: 2.81 µM
HS 578T breast
  GI50: 1.72 µM
  TGI: 4.31 µM
HT29 colon
  GI50: 1.67 µM
  TGI: 3.13 µM
IGROV1 ovarian
  GI50: 1.51 µM
  TGI: 3.18 µM
KM12 colon
  GI50: 1.48 µM
  TGI: 2.89 µM
MALME-3M melanoma
  GI50: 1.87 µM
  TGI: 3.62 µM
MDA-MB-231 breast
  GI50: 1.33 µM
  TGI: 2.67 µM
MDA-MB-435
  GI50: 1.76 µM
  TGI: 3.19 µM
NCI-H226 lung
  GI50: 4.58 µM
  TGI: 47.1 µM
NCI-H23 lung
  GI50: 1.61 µM
  TGI: 3.18 µM
NCI-H460 lung
  GI50: 1.61 µM
  TGI: 3.06 µM
OVCAR-3 ovarian
  GI50: 1.61 µM
  TGI: 3.08 µM
OVCAR-5 ovarian
  GI50: 1.62 µM
  TGI: 3.03 µM
PC-3 prostate
  GI50: 1.52 µM
  TGI: 3.02 µM
SF-268 CNS
  GI50: 1.5 µM
  TGI: 3.01 µM
SF-295 CNS
  GI50: 1.74 µM
  TGI: 3.27 µM
SF-539 CNS
  GI50: 1.68 µM
  TGI: 3.12 µM
SK-MEL-2 melanoma
  GI50: 1.75 µM
  TGI: 3.43 µM
SK-MEL-28 melanoma
  GI50: 1.82 µM
  TGI: 3.34 µM
SK-MEL-5 melanoma
  GI50: 2.13 µM
  TGI: 5.25 µM
SK-OV-3 ovarian
  GI50: 1.47 µM
  TGI: 2.89 µM
SN12C renal
  GI50: 1.54 µM
  TGI: 2.93 µM
SNB-75 CNS
  GI50: 1.31 µM
  TGI: 2.61 µM
SW-620 colon
  GI50: 1.62 µM
  TGI: 3.09 µM
TK-10 renal
  GI50: 1.99 µM
  TGI: 3.48 µM
UACC-257 melanoma
  GI50: 1.8 µM
  TGI: 3.31 µM
UACC-62 melanoma
  GI50: 1.62 µM
  TGI: 3.04 µM
UO-31 renal
  GI50: 1.16 µM
  TGI: 2.42 µM

## CC1=C[S+](c2ccccc2)c2cccc3cc4ccccc4c1c23 (configuration not stated)
786-0 renal
  GI50: 0.379 µM
A498 renal
  GI50: 1.08 µM
  TGI: 5.39 µM
A549 NSCLC
  GI50: 0.309 µM
  TGI: 3.59 µM
ACHN renal
  GI50: 0.734 µM
  TGI: 14.4 µM
BT-549 breast
  GI50: 0.216 µM
  TGI: 0.717 µM
CAKI-1 renal
  GI50: 0.815 µM
  TGI: 8.02 µM
CCRF-CEM leukemia
  GI50: 0.265 µM
COLO 205 colon
  GI50: 0.147 µM
  TGI: 0.314 µM
DU-145 prostate
  GI50: 0.515 µM
  TGI: 2.13 µM
EKVX NSCLC
  GI50: 0.333 µM
  TGI: 4.99 µM
HCC-2998 colon
  GI50: 0.406 µM
  TGI: 1.58 µM
HCT-116 colon
  GI50: 0.0655 µM
HCT-15 colon
  GI50: 0.378 µM
  TGI: 8.44 µM
HL-60(TB) leukemia
  GI50: 0.173 µM
  TGI: 1.03 µM
HOP-62 NSCLC
  GI50: 0.486 µM
HOP-92 NSCLC
  GI50: 0.506 µM
  TGI: 2.43 µM
HS 578T breast
  GI50: 0.385 µM
  TGI: 14.8 µM
HT29 colon
  GI50: 0.348 µM
  TGI: 2.12 µM
IGROV1 ovarian
  GI50: 0.467 µM
  TGI: 3.11 µM
K-562 leukemia
  GI50: 0.0712 µM
  TGI: 3.85 µM
KM12 colon
  GI50: 0.109 µM
  TGI: 1.21 µM
LOX IMVI melanoma
  GI50: 0.697 µM
  TGI: 2.23 µM
M14 melanoma
  GI50: 0.189 µM
MALME-3M melanoma
  GI50: 0.372 µM
  TGI: 2.22 µM
MDA-MB-231 breast
  GI50: 1.69 µM
  TGI: 4.48 µM
MDA-MB-435
  GI50: 0.276 µM
  TGI: 1.61 µM
MOLT-4 leukemia
  GI50: 0.572 µM
  TGI: 9.26 µM
NCI-H226 lung
  GI50: 1.26 µM
  TGI: 7.47 µM
NCI-H23 lung
  GI50: 1.09 µM
  TGI: 2.86 µM
NCI-H460 lung
  GI50: 0.349 µM
  TGI: 2.37 µM
NCI-H522 lung
  GI50: 0.297 µM
  TGI: 1.57 µM
NCI/ADR-RES ovarian
  GI50: 3.87 µM
  TGI: > 55.3 µM
OVCAR-3 ovarian
  GI50: 0.323 µM
  TGI: 1.44 µM
OVCAR-4 ovarian
  GI50: 0.773 µM
  TGI: 2.44 µM
OVCAR-5 ovarian
  GI50: 1.11 µM
  TGI: 2.52 µM
OVCAR-8 ovarian
  GI50: 0.158 µM
  TGI: 3.73 µM
PC-3 prostate
  GI50: 0.247 µM
  TGI: 12.1 µM
RPMI-8226 leukemia
  GI50: 0.0379 µM
  TGI: 0.862 µM
RXF 393 renal
  GI50: 0.618 µM
  TGI: 2.05 µM
SF-268 CNS
  GI50: 0.237 µM
  TGI: 1.76 µM
SF-295 CNS
  GI50: 0.111 µM
  TGI: 0.584 µM
SF-539 CNS
  GI50: 0.35 µM
  TGI: 1.28 µM
SK-MEL-2 melanoma
  GI50: 1.52 µM
  TGI: 8.55 µM
SK-MEL-28 melanoma
  GI50: 0.511 µM
  TGI: 1.89 µM
SK-MEL-5 melanoma
  GI50: 0.247 µM
  TGI: 0.776 µM
SK-OV-3 ovarian
  GI50: 2.41 µM
  TGI: 14.9 µM
SN12C renal
  GI50: 0.172 µM
  TGI: 1.25 µM
SNB-19 CNS
  GI50: 0.35 µM
  TGI: 1.5 µM
SNB-75 CNS
  GI50: 0.452 µM
  TGI: 1.55 µM
SR leukemia
  GI50: 0.297 µM
  TGI: 2.14 µM
SW-620 colon
  GI50: 0.321 µM
  TGI: 1.65 µM
T-47D breast
  GI50: 0.217 µM
  TGI: 1.25 µM
TK-10 renal
  GI50: 0.604 µM
  TGI: 2.38 µM
U251 CNS
  GI50: 0.0458 µM
  TGI: 0.337 µM
UACC-257 melanoma
  GI50: 0.315 µM
  TGI: 1.68 µM
UACC-62 melanoma
  GI50: 0.305 µM
  TGI: 1.64 µM
UO-31 renal
  GI50: 0.312 µM
  TGI: 7.64 µM
